Reference: ChEMBL document CHEMBL3272271, “Folate antagonists. 13. 2,4-Diamino-6-](alpha,alpha,alpha-trifluoro-m-tolyl)thio]quinazoline and related 2,4-diamino-6-[(phenyl- and naphthyl)thio]quinazolines, a unique class of antimetabolites with extraordinary antimalarial and antibacterial effects” (J Med Chem, 1978)
≈ marks a conversion by molar mass, not a printed value. Calls of active or inactive are those of the source. The rule behind the calls is not given here.

Tests used:
Staphylococcus aureus [1] = assay: Antibacterial activity against Staphylococcus aureus UC-96 by gradient plate test; assay type: functional
Enterococcus faecalis = assay: Antibacterial activity against Streptococcus faecalis MGH-2 by gradient plate test; assay type: functional
Plasmodium berghei [2] = assay: Antimalarial activity against Plasmodium berghei infected in mouse assessed as increase in mean survival days of host at 640 mg/kg, sc administered 72 hrs after infection relative to control; assay type: functional; settings: route subcutaneous
Plasmodium berghei [3] = assay: Antimalarial activity against Plasmodium berghei infected in mouse assessed as increase in mean survival days of host at 40 mg/kg, sc administered 72 hrs after infection relative to control; assay type: functional; settings: route subcutaneous
Plasmodium berghei [4] = assay: Antimalarial activity against Plasmodium berghei infected in mouse assessed as increase in mean survival days of host at 20 mg/kg, sc administered 72 hrs after infection relative to control; assay type: functional; settings: route subcutaneous
Plasmodium berghei [5] = assay: Antimalarial activity against Plasmodium berghei infected in mouse assessed as disease cure from parasite infection at 640 mg/kg, sc administered 72 hrs after infection; assay type: functional, organism-based; parameters: dose 640 mg/kg
Pseudomonas aeruginosa = assay: Antibacterial activity against Pseudomonas aeruginosa 28 by gradient plate test; assay type: functional
Staphylococcus aureus [6] = assay: Antibacterial activity against drug-resistant Staphylococcus aureus S18713 by gradient plate test; assay type: functional
[7] = test system: Mycobacterium tuberculosis; assay: Antibacterial activity against Mycobacterium tuberculosis H37Ra by gradient plate test; assay type: functional
Plasmodium berghei [8] = assay: Antimalarial activity against Plasmodium berghei infected in mouse assessed as increase in mean survival days of host at 160 mg/kg, sc administered 72 hrs after infection relative to control; assay type: functional; settings: route subcutaneous
Escherichia coli = assay: Antibacterial activity against Escherichia coli Vogel by gradient plate test; assay type: functional
Shigella sonnei = assay: Antibacterial activity against Shigella sonnei C-10 by gradient plate test; assay type: functional
Plasmodium berghei [9] = assay: Antimalarial activity against Plasmodium berghei infected in mouse assessed as increase in mean survival days of host at 1.25 mg/kg, sc administered 72 hrs after infection relative to control; assay type: functional; settings: route subcutaneous
Plasmodium berghei [10] = assay: Ratio of quinine hydrochloride SD90 to compound SD90 for trophozoite-induced Plasmodium berghei infected in mouse assessed as daily dose required to suppression of 90% parasite infection administered with diet for 6 days; assay type: functional
Plasmodium berghei [11] = assay: Antimalarial activity against Plasmodium berghei infected in mouse assessed as disease cure from parasite infection at 160 mg/kg, sc administered 72 hrs after infection; assay type: functional, organism-based; parameters: dose 160 mg/kg
Plasmodium berghei [12] = assay: Antimalarial activity against Plasmodium berghei infected in mouse assessed as increase in mean survival days of host at 2.5 mg/kg, sc administered 72 hrs after infection relative to control; assay type: functional; settings: route subcutaneous
Plasmodium berghei [13] = assay: Antimalarial activity against Plasmodium berghei infected in mouse assessed as disease cure from parasite infection at 40 mg/kg, sc administered 72 hrs after infection; assay type: functional, organism-based; parameters: dose 40 mg/kg
Plasmodium gallinaceum [14] = assay: Antimalarial activity against sporozoite-induced Plasmodium gallinaceum infected in white leghorn chicken assessed as disease cure from parasite infection at 160 mg/kg, sc administered 72 hrs after infection; assay type: functional, organism-based; parameters: dose 160 mg/kg
Plasmodium berghei [15] = assay: Antimalarial activity against Plasmodium berghei infected in mouse assessed as disease cure from parasite infection at 80 mg/kg, sc administered 72 hrs after infection; assay type: functional, organism-based; parameters: dose 80 mg/kg
Plasmodium berghei [16] = assay: Antimalarial activity against Plasmodium berghei infected in mouse assessed as disease cure from parasite infection at 320 mg/kg, sc administered 72 hrs after infection; assay type: functional, organism-based; parameters: dose 320 mg/kg
Plasmodium gallinaceum [17] = assay: Antimalarial activity against sporozoite-induced Plasmodium gallinaceum infected in white leghorn chicken assessed as disease cure from parasite infection at 40 mg/kg, sc administered 72 hrs after infection; assay type: functional, organism-based; parameters: dose 40 mg/kg
Plasmodium berghei [18] = assay: Antimalarial activity against Plasmodium berghei infected in mouse assessed as increase in mean survival days of host at 10 mg/kg, sc administered 72 hrs after infection relative to control; assay type: functional; settings: route subcutaneous
Gallus gallus = assay: Toxicity in sporozoite-induced Plasmodium gallinaceum infected white leghorn chicken assessed as mortality at 320 mg/kg, sc administered 72 hrs after infection measured up to 6 days; assay type: organism-based; parameters: dose 320 mg/kg, route subcutaneous; settings: in vivo
Plasmodium berghei [19] = assay: Antimalarial activity against Plasmodium berghei infected in mouse assessed as disease cure from parasite infection at 20 mg/kg, sc administered 72 hrs after infection; assay type: functional, organism-based; parameters: dose 20 mg/kg
Plasmodium gallinaceum [20] = assay: Antimalarial activity against sporozoite-induced Plasmodium gallinaceum infected in white leghorn chicken assessed as disease cure from parasite infection at 320 mg/kg, sc administered 72 hrs after infection; assay type: functional, organism-based; parameters: dose 320 mg/kg
Plasmodium gallinaceum [21] = assay: Antimalarial activity against sporozoite-induced Plasmodium gallinaceum infected in white leghorn chicken assessed as disease cure from parasite infection at 20 mg/kg, sc administered 72 hrs after infection; assay type: functional, organism-based; parameters: dose 20 mg/kg
Plasmodium gallinaceum [22] = assay: Antimalarial activity against sporozoite-induced Plasmodium gallinaceum infected in white leghorn chicken assessed as increase in mean survival days of host at 20 mg/kg, sc administered 72 hrs after infection relative to control; assay type: functional; settings: route subcutaneous
Plasmodium berghei [23] = assay: Antimalarial activity against trophozoite-induced Plasmodium berghei infected in mouse assessed as daily dose required to suppression of 90% parasite infection administered with diet for 6 days; assay type: functional
Plasmodium gallinaceum [24] = assay: Antimalarial activity against sporozoite-induced Plasmodium gallinaceum infected in white leghorn chicken assessed as disease cure from parasite infection at 80 mg/kg, sc administered 72 hrs after infection; assay type: functional, organism-based; parameters: dose 80 mg/kg
Plasmodium berghei [25] = assay: Antimalarial activity against Plasmodium berghei infected in mouse assessed as increase in mean survival days of host at 5 mg/kg, sc administered 72 hrs after infection relative to control; assay type: functional; settings: route subcutaneous
Plasmodium gallinaceum [26] = assay: Antimalarial activity against sporozoite-induced Plasmodium gallinaceum infected in white leghorn chicken assessed as increase in mean survival days of host at 10 mg/kg, sc administered 72 hrs after infection relative to control; assay type: functional; settings: route subcutaneous
Plasmodium gallinaceum [27] = assay: Antimalarial activity against sporozoite-induced Plasmodium gallinaceum infected in white leghorn chicken assessed as disease cure from parasite infection at 10 mg/kg, sc administered 72 hrs after infection; assay type: functional, organism-based; parameters: dose 10 mg/kg

Question: For `Nc1nc(N)c2c(Cl)c(Sc3ccccc3)ccc2n1`, which MIC (Staphylococcus aureus [1]) is on record?
Answer: < 0.25 µg/mL

Question: And the MIC (Enterococcus faecalis)?
Answer: < 0.25 µg/mL

Question: And the MST (Plasmodium berghei [2])?
Answer: 9.9 days

Question: What about the MST (Plasmodium berghei [3]) of the same molecule?
Answer: 4.7 days

Question: And the MST (Plasmodium berghei [4])?
Answer: 3.9 days

Question: And the Activity (Plasmodium berghei [5])?
Answer: Active

Question: What about the MIC (Pseudomonas aeruginosa) of the same molecule?
Answer: > 25 µg/mL

Question: What about the MIC (Staphylococcus aureus [6]) of the same molecule?
Answer: < 0.25 µg/mL

Question: And the MIC [7]?
Answer: 10 µg/mL (≈ 33 µM)

Question: And the MST (Plasmodium berghei [8])?
Answer: 13.9 days

Question: What about the MIC (Escherichia coli) of the same molecule?
Answer: < 0.25 µg/mL

Question: And the MIC (Shigella sonnei)?
Answer: < 0.25 µg/mL

Question: For `COc1ccc(Sc2ccc3nc(N)nc(N)c3c2)cc1`, which MIC (Staphylococcus aureus [1]) is on record?
Answer: < 0.25 µg/mL

Question: And the MST (Plasmodium berghei [9])?
Answer: 2.2 days

Question: What about the Ratio (Plasmodium berghei [10]) of the same molecule?
Answer: 62

Question: What about the Activity (Plasmodium berghei [11]) of the same molecule?
Answer: Active

Question: And the MST (Plasmodium berghei [12])?
Answer: 3.8 days

Question: What about the MIC (Enterococcus faecalis) of the same molecule?
Answer: < 0.25 µg/mL

Question: And the Activity (Plasmodium berghei [13])?
Answer: Active

Question: What about the Activity (Plasmodium gallinaceum [14]) of the same molecule?
Answer: Active

Question: And the Activity (Plasmodium berghei [15])?
Answer: Active

Question: What about the Activity (Plasmodium berghei [16]) of the same molecule?
Answer: Active

Question: And the Activity (Plasmodium gallinaceum [17])?
Answer: Active

Question: And the MST (Plasmodium berghei [18])?
Answer: 9.6 days

Question: And the Activity (Plasmodium berghei [5])?
Answer: Active

Question: And the Activity (Gallus gallus)?
Answer: Toxic

Question: What about the Activity (Plasmodium berghei [19]) of the same molecule?
Answer: Active

Question: What about the MIC (Pseudomonas aeruginosa) of the same molecule?
Answer: > 25 µg/mL

Question: What about the MIC (Staphylococcus aureus [6]) of the same molecule?
Answer: < 0.25 µg/mL

Question: And the Activity (Plasmodium gallinaceum [20])?
Answer: Active

Question: And the Activity (Plasmodium gallinaceum [21])?
Answer: Active

Question: What about the MST (Plasmodium gallinaceum [22]) of the same molecule?
Answer: 3.2 days

Question: What about the SD90 (Plasmodium berghei [23]) of the same molecule?
Answer: 1.2 mg/kg/day

Question: What about the MIC (Escherichia coli) of the same molecule?
Answer: < 0.25 µg/mL

Question: What about the Activity (Plasmodium gallinaceum [24]) of the same molecule?
Answer: Active

Question: And the MIC (Shigella sonnei)?
Answer: 1.5 µg/mL (≈ 5.03 µM)

Question: What about the MST (Plasmodium berghei [25]) of the same molecule?
Answer: 4.8 days

Question: What about the MST (Plasmodium gallinaceum [26]) of the same molecule?
Answer: 2.2 days

Question: What about the Activity (Plasmodium gallinaceum [27]) of the same molecule?
Answer: Active
